A word on the IC50: it is the concentration that inhibits the measured activity by half. A lower IC50 goes with greater potency in that assay.

This note sets out measurements from patent US20210078958A1, “QUINAZOLINE DERIVATIVE AND USE THEREOF” (MEDSHINE DISCOVERY INC., priority 2017, published 2021).

One series deals with NCI-N87 cell. In words: inhibitory activity on cell proliferation (Cell-Titer-Glo), NCI-N87. It counts as cell-based. The following applies: Homo sapiens, NCI-N87, 72 h; incubation for 3 days, Cell-Titer-Glo. The text has this:
(§1) Purpose of the assay: to detect the inhibitory activity of the test compounds on cell proliferation.
(§2) Principle of the assay: the luciferase in a Cell-Titer-Glo reagent produces oxidized luciferin with luciferin, oxygen and ATP as reaction substrates, and releases energy in the form of light. Since the luciferase reaction requires ATP, the total amount of light generated by the reaction is proportional to the total amount of ATP that reflects cell viability.
(§3) Cell Titer-Glo cell viability assay kit with luminescence (Promega #G7573)
(§4) According to the schematic diagram of the cell seed plate, cells were seeded in a 384- or 96-well plate at a density of 1000 cells per well and 25 μL per well, and 25 μL of PBS was added to the wells near edge of the place where no cells were seeded.
(§5) (1) The stock solution of the compounds has a concentration of 10 mM, and the compounds were diluted with DMSO to an initial concentration of 4 mM. The compounds were added to the plate with stock solution of compounds, 9 μL per well.
(§6) (2) The compounds were diluted with an ECHO liquid workstation, where 125 nL of compounds were added to each well of the cell plate, 125 nL of DMSO was added to each of the cell well in columns 2 and 23, and 125 nL of DMSO was added to each PBS well in columns 1 and 24.
(§7) 2.3 After addition of the compounds, the cell plate was centrifuged at 1000 rpm for 1 min, and then placed in a 37° C., 5% CO2 incubator for incubation for 3 days.
(§8) The cell plate was taken out from the incubator and equilibrated at room temperature for 30 minutes. 25 μL of Cell-Titer-Glo reagent was added to each well, shaken for one minute to allow well mixed, and centrifuged at 1000 rpm for 1 minute. After 10 minutes, the plate was read on PerkinElmer Envision, and the […] reading time was set to 0.2 second.

The next series has as its system OE21 cell. In words: inhibitory activity on cell proliferation (Cell-Titer-Glo), OE21. It counts as cell-based. The following applies: Homo sapiens, OE21, 72 h, incubation for 3 days.
Excerpt: as §1, §2, §3, §4, §5, §6, §7, §8

A further series concerns the target HER4 (ErbB4) (Homo sapiens, UniProt Q15303). In words: in vitro enzyme activity, HER4 (ErbB4). It counts as biochemical. The following applies: human ErbB4, [γ-33P]ATP, poly(Glu, Tyr) substrate. As for the experimental part: The purpose of this assay is to detect the in vitro inhibitory activity of compounds on HER1 (ErbB1), HER2 (ErbB2), and HER4 (ErbB4). The enzymes used in this assay are human ErbB1, ErbB2 and ErbB4. Eurofins Pharma Discovery Service provided the method for activity detection.
Steps and Method of the Assay (96-Well Plate):
A buffer solution of the test compounds in a dilution of 5-fold (5 μL), polypeptide substrate poly(Glu, Tyr) (4:1) (2.5 μL), ErbB (4-20 ng, 2.5 μL), MnCl2 (50 mM, 1.25 μL), dH2O (3.75 μL), and [γ-^33P]ATP (10 μL) were added, and incubated at 30° C. for 10 minutes. The reaction was terminated by adding 3% phosphoric acid. 10 μL of the sample was taken and transferred to Filtermate A. The filter disc was washed 3 times with 75 mM phosphoric acid and once with methanol. The filter disc was transferred to a sealed plastic bag and the scintillation mixture (4 mL) was added. The intensity of the emitted photon was detected by a scintillation luminescence counter. The CPM (times/min) of the enzyme sample was compared with the CPM of the internal control sample. The level of photon intensity reflected the degree of the tyrosine kinase activity.

The next series concerns the target T1, CYP2D6 (Homo sapiens, UniProt P10635).
T1 construct: in the assay of CYP enzyme activity in human liver microsome; from tissue; host or cells: human liver microsome
In words: inhibition of CYP enzyme activity in human liver microsome, CYP2D6. It counts as in vitro ADME. The text has this: The results of the compounds disclosed herein and the reference compound Poziotinib in the assay of CYP enzyme activity in human liver microsome were shown in the following table (Table 8).

For series [1], the system named is subcutaneous xenograft tumor of human esophageal carcinoma OE21 cells. It counts as in vivo. The following applies: 2/1.5 mg/kg; for Tumor volume (mm3) (Day 21): OE21 xenograft, Mean + SEM; for T/C (%) / TGI (%): day 21. On the procedure: Purpose of the assay: to evaluate the in vivo efficacy of the compounds to be tested on subcutaneous xenograft tumor of human esophageal carcinoma OE21 cells in a BALB/c nude mouse model.
Animals of the assay: female BALB/c nude mice, 6-8 weeks old, weighing 17-23 grams; supplier: shanghai sippr bk laboratory animals Ltd.
Human esophageal carcinoma OE21 cells were cultured in monolayer in vitro. The culture conditions were RPMI-1640 medium plus 10% fetal bovine serum, 100 U/mL penicillin, 100 U/mL streptomycin and 2 mM glutamine, 37° C., 5% CO2. The passaging was performed by conventional digestion with trypsin-EDTA twice a week. When the cell saturation was 80%-90%, the cells were collected, counted and inoculated.
0.1 ml […] OE21 cells (PBS) were inoculated subcutaneously on the right back of each mouse. When the average tumor volume reached 112 mm^3, administration to each group was started.
The test compound was formulated into a 0.15 mg/mL to 0.3 mg/mL clear or suspension solution in the solvents of 10% NMP+10% ethylene glycol stearate+80% water. 6.4 Tumor measurement and assay index
The assay index is to investigate whether tumor growth is inhibited, delayed or cured. Tumor diameter was measured twice a week with vernier caliper. The calculation formula of tumor volume is: V=0.5a×b^2, wherein a and b represent the long and short diameters of tumor, respectively.
The antitumor efficacy of the compounds were evaluated by TGI (%) or relative tumor proliferation rate T/C (%). TGI (%) reflects the tumor growth inhibition rate. TGI (%) is calculated as follows: TGI (%)=[(1−(average tumor volume at the end of administration for a certain treatment group−average tumor volume at the beginning of administration for this treatment group))/(average tumor volume at the end of treatment for a solvent control group−average tumor volume at the beginning of administration for this solvent control group)]×100%.
Relative tumor proliferation rate T/C (%): the calculation formula is as follows: T/C (%)=average tumor volume at the end of administration for a certain treatment group/average tumor volume at the end of treatment for the solvent control group×100%.
Statistical analysis included the mean and standard error (SEM) of tumor volume at each time point in each group. One-way ANOVA was used for comparison among three or more groups. […] SPSS 17.0 was used for all data analysis. p<0.05 is considered a significant difference.

T1 sequence (P10635 whole entry): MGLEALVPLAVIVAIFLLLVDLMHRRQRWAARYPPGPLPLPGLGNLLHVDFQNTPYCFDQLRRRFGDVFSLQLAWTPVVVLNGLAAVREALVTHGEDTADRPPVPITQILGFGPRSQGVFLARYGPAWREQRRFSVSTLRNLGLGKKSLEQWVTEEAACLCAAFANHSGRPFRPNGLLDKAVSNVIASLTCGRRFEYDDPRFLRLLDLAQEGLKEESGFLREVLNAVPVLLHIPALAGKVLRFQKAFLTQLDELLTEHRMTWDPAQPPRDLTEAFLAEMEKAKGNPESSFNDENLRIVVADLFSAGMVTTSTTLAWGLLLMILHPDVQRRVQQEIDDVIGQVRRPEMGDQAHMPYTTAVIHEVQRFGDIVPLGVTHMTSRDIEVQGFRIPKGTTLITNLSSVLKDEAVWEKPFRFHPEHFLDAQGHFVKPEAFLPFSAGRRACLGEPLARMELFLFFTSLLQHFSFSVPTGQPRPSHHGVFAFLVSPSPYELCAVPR
HER4 (ErbB4), sequence (Q15303 26-1308): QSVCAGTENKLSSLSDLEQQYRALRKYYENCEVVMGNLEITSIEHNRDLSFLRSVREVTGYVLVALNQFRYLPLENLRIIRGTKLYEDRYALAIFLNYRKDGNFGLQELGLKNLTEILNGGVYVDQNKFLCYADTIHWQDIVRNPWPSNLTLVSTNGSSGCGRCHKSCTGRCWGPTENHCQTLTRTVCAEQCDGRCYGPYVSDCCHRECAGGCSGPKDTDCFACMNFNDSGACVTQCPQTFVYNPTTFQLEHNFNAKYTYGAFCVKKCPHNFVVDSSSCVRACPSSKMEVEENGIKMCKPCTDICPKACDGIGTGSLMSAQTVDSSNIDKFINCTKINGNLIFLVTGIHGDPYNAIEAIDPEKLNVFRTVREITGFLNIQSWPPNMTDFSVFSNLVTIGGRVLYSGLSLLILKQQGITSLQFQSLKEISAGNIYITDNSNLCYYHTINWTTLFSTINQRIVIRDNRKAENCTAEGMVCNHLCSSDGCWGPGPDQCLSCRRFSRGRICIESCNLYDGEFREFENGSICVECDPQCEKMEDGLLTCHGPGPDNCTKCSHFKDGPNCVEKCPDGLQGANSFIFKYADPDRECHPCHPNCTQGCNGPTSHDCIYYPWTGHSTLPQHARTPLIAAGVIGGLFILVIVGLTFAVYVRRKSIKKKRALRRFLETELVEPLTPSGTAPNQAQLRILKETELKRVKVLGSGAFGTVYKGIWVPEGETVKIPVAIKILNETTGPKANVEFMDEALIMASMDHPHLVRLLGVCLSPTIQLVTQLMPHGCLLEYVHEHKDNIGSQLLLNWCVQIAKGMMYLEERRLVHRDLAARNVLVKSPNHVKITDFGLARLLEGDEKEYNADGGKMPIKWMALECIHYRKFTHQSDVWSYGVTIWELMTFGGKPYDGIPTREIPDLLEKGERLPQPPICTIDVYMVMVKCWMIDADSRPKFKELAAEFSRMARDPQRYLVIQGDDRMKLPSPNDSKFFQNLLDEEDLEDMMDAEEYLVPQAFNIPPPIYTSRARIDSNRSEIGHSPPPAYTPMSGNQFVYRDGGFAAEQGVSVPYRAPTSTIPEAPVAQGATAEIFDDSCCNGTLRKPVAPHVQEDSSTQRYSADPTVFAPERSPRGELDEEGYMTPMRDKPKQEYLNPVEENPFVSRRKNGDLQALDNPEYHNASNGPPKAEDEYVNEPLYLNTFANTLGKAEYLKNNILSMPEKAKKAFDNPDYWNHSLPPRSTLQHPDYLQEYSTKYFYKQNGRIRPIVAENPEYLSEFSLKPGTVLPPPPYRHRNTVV

As for `C=CC(=O)N1[C@@H]2CC[C@H]1C[C@H](Oc1cc3c(Nc4ccc(Cl)c(Cl)c4F)ncnc3cc1OC)C2` [Example 8], the IC50 with NCI-N87 cell came to 0.28 nM; with OE21 cell, 0.47 nM; against HER4 (ErbB4), 3.5 nM.
For the compound `C=CC(=O)N1[C@@H]2CC[C@H]1C[C@H](Nc1cc3c(Nc4ccc(Cl)c(Cl)c4F)ncnc3cc1OC)C2` [Example 38], the IC50 is 0.46 nM with NCI-N87 cell, 6000 nM on CYP2D6, 0.52 nM in the series on OE21 cell and 3 nM at HER4 (ErbB4). On CYP2D6 (versus Poziotinib), the “activity on CYP2D6, times better than that of the reference compound” value is 6 times. Further, in series [1], the “Tumor volume (mm3) (Day 21)” value was 55 ± 13 mm3. In addition, in series [1], the “T/C (%)” value is 5.82%. The “TGI (%)” value in series [1] worked out at 106.65%.
At CYP2D6, `C=CC(=O)N1CCC(Oc2cc3c(Nc4ccc(Cl)c(Cl)c4F)ncnc3cc2OC)CC1` [Poziotinib, reference compound] returned an IC50 of 1000 nM. For the same compound, in series [1], the “Tumor volume (mm3) (Day 21)” value is listed as 57 ± 7 mm3, the “T/C (%)” value was 6.05% and the “TGI (%)” value is reported as 106.65%.
